This passage reports IC50 results from patent US10093623B2, “Cyclic amides as MetAP-2 inhibitors” (MERCK PATENT GmbH, priority 2012, dated 2018).

The assay deals with MetAP-2 (Homo sapiens, UniProt P50579). The experiment in a line: MetAP-2 activity measurement (coupled enzymatic reactions, Met-Arg-Ser substrate, dianisidine detection at 450 nm). In kind it is biochemical. To be noted: Inhibition of MetAP-2; read-out: IC50 enzyme. The gist of the method: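 Coupled continuous assay with Met-Arg-Ser tripeptide substrate: released methionine oxidised by L-amino acid oxidase to give H2O2, which peroxidase uses to oxidise dianisidine, followed at 450 nm. Activity taken as slope of absorbance versus time over the visually linear region; dianisidine extinction coefficient converts to mol Met per time.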

Each structure is given as a SMILES string.

Chain of MetAP-2 (P50579 whole entry, species assumed): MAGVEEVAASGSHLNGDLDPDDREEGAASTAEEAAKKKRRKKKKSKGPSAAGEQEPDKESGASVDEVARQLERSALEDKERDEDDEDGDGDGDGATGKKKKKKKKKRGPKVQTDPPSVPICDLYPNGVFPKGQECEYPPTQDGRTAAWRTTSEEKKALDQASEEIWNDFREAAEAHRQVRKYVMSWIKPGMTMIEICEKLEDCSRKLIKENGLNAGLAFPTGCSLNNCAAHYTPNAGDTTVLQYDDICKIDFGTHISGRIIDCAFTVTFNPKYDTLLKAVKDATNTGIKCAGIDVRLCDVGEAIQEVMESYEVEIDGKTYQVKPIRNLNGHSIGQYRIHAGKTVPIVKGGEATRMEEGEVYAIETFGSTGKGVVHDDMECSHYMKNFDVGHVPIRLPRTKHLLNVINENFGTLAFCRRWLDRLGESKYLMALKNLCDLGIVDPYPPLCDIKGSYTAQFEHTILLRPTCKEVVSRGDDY

Broadly, the IC50 is the midpoint of a concentration-inhibition curve. For the compound `O=C(NCCc1cc(F)cc(Cl)c1)[C@@]1(O)CCN(c2ccc3[nH]ncc3c2)C1=O` [A191, N-[2-(3-Chloro-5-fluorophenyl)-ethyl]-(S)-3-hydroxy-1-(1H-indazol-5-yl)-2-oxopyrrolidine-3-carboxamide], the IC50 was in the range of 10 to 1000 nM.
